Where two headings read alike, the source gives them in different places.
Tests used:
[1] = test system: Type 2 5α-reductase; details: cited from earlier work
[2] = test system: Type 1 5α-reductase; details: Table 2, cited from earlier work; for IC50: read-out: IC50 for DHT, Type 1 5α-reductase
[3] = biological target: 5α-reductase type 1; details: Table 1; read-out: IC50 for DHT inhibition, epithelial cells (type 1); cited from earlier work
[4] = biological target: 5α-reductase type 2; details: cited from earlier work
[5] = test system: Type 1 5α-reductase; details: cited from earlier work
[6] = test system: 5α-reductase; details: rat, in vivo; cited from earlier work
[7] = test system: 5α-reductase; details: in vivo; cited from earlier work
[8] = cited from earlier work; for time to degradation in oil preparations: exposed to light, "in as little as"
[9] = biological target: T1, Cyclooxygenase-2 (Ovis aries, UniProt P79208); test: biochemical; assay type: biochemical, sheep
T1 construct: Cyclooxygenase-2 (from sheep placenta); from tissue; host or cells: sheep placenta; assay by Panlabs
Protocol: The reaction is initiated by addition of arachidonic acid (100 mM) and terminated after 20 minutes incubation at 37° C. by addition of TCA.

[10] = biological target: T2, 5-lipoxygenase (Rattus norvegicus, UniProt P12527); test: biochemical; details: for 5-Lipo activity: screened at 3×10^-5 (30 μM)
T2 sequence (P12527 1-673): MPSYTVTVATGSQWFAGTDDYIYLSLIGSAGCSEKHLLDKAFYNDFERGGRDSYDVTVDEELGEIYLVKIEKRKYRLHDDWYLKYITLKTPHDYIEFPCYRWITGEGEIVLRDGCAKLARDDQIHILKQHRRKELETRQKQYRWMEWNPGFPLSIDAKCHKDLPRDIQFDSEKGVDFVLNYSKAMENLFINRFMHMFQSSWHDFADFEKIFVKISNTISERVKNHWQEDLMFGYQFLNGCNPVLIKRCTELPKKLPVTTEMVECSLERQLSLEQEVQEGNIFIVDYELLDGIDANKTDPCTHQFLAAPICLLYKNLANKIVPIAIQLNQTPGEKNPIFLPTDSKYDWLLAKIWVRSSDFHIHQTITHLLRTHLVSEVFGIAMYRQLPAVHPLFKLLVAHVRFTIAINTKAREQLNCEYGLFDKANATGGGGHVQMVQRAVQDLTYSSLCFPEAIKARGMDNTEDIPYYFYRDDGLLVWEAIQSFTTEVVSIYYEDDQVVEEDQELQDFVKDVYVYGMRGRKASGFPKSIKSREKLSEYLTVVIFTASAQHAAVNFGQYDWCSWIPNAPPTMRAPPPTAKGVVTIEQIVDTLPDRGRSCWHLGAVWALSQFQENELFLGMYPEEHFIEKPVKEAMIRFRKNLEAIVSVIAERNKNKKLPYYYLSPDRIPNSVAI
Protocol: The procedure was as follows. 5-lipoxygenase assays were run using a crude enzyme preparation from rat basophilic leukemia cells (RBL-1). Test compounds were pre-incubated with the enzyme for 5 minutes at room temperature and the reaction was initiated by addition of substrate (arachidonic acid). Following an 8 minute incubation at room temperature, the reaction was terminated by addition of citric acid, and levels of 5-HETE were determined by 5-HETE radioimmunoassay (RIA).
Compounds and fractions were screened at an initial concentration of 3×10^-5.

[11] = test system: 5α-reductase; details: cited from earlier work
[12] = biological target: T3, Cyclooxygenase-1 (Ovis aries, UniProt P05979); test: biochemical; assay type: biochemical, ram; details: for Cox1 activity: screened at 3×10^-4 M
T3 construct: Cyclooxygenase-1 (from ram seminal vesicles); from tissue; host or cells: ram seminal vesicles; assay by Panlabs
T3 sequence (P05979 25-600): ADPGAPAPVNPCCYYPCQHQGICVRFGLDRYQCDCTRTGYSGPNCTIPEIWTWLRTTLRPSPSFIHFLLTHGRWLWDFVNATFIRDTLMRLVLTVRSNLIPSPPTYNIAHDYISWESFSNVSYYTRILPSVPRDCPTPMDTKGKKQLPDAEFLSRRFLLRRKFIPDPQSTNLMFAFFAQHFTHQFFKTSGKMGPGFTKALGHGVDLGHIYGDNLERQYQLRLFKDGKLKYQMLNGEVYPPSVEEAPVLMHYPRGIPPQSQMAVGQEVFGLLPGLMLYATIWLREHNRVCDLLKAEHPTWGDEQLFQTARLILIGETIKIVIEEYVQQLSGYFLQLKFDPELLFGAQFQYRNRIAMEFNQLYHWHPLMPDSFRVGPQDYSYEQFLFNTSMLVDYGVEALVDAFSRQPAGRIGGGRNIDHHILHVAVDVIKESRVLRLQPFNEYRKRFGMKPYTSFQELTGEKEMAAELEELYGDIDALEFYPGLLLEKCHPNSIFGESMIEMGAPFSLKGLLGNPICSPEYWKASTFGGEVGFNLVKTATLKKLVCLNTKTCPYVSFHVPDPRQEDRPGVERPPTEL
Protocol: The reaction was initiated by addition of arachidonic acid (100 mM) and terminated after 20 minutes incubation at 37° C. by addition of trichloroacetic acid (TCA).

[13] = Table 1, read-out: IC50 for DHT inhibition, stroma (type 2)
[14] = fibroblasts, read-out: IC50, inhibition of DHT formation in fibroblasts
[15] = Table 8, read-out: Cyclooxygenase-2 IC50 (Table 8)
[16] = Table 8, read-out: Cyclooxygenase-1 IC50 (Table 8)
[17] = Table 8, read-out: 5 Lipoxygenase IC50 (Table 8)

T1 sequence (P79208 17-603): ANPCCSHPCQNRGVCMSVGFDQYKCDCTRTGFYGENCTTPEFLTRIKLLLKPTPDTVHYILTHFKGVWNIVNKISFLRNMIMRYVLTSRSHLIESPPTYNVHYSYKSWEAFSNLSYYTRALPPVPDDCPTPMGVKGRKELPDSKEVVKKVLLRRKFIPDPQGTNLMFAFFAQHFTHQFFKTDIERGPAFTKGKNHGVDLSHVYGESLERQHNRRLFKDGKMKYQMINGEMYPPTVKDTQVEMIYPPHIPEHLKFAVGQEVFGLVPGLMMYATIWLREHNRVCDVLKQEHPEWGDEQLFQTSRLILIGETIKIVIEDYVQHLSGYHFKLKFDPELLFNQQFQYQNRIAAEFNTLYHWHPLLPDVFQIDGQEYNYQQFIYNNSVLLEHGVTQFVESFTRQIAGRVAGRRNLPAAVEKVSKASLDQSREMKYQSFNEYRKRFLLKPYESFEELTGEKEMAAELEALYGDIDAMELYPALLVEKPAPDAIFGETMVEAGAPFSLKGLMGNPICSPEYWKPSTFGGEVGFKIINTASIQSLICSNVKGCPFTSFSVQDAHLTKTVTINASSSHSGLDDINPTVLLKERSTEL

Q: With `CC(C)(C)NC(=O)[C@H]1CC[C@H]2[C@@H]3CC[C@H]4NC(=O)C=C[C@]4(C)[C@H]3CC[C@]12C` [Finasteride] as the compound, how does the type of inhibition [1] read?
A: (non)competitive

Q: What about the IC50 ([1]; read-out: inhibition, IC50) of the same compound?
A: 10.7 nM

Q: What about the Ki ([1]; read-out: inhibition, Ki) of the same compound?
A: 7.3 nM

Q: And the Inhibition type [2]?
A: Competitive

Q: And the IC50 [2]?
A: 500 nM

Q: And the IC50 [3]?
A: 400 nM

Q: What about the IC50 [4, 13] of the same compound?
A: 30 nM

Q: And the IC50 [4, 14]?
A: 30 nM

Q: And the type of inhibition [5]?
A: competitive

Q: And the IC50 ([5]; read-out: inhibition, IC50)?
A: 400 nM

Q: And the Ki ([5]; read-out: inhibition, Ki)?
A: 108 nM

Q: And the “inhibition of 5α-reductase in castrated rats” value [6]?
A: inhibits 5α-reductase

Q: What about the “decrease in serum DHT levels” value [7] of the same compound?
A: decrease in serum DHT levels

Q: With `CCC(C)C(=O)[C@]12C(=O)[C@](CC=C(C)C)(C[C@H](CC=C(C)C)[C@@]1(C)CCC=C(C)C)C(=O)C(CC=C(C)C)=C2O` (stereo partly shown) [adhyperforin] as the compound, how does the “time to degradation in oil preparations” value [8] read?
A: 14 days

Q: With `CCN(CC)C(=O)[C@H]1CC[C@H]2[C@@H]3CC[C@H]4N(C)C(=O)CC[C@]4(C)[C@H]3CC[C@]12C` [4-MA] as the compound, how does the Inhibition type [2] read?
A: Competitive

Q: And the IC50 [2]?
A: 10 nM

Q: And the IC50 [3]?
A: 20 nM

Q: And the IC50 [4, 13]?
A: 50 nM

Q: And the IC50 [4, 14]?
A: 50 nM

Q: With `CC/C=C\C/C=C\C/C=C\CCCCCCCC(=O)O` [Linolenic Acid] as the compound, how does the Cox2 activity [9] read?
A: Negative

Q: What about the IC50 [9, 15] of the same compound?
A: > 300000 nM

Q: And the IC50 [10]?
A: 12000 nM

Q: What about the 5α-reductase inhibitory activity [11] of the same compound?
A: particularly potent inhibitors

Q: What does the source list for `CCCCC/C=C\C/C=C\CCCCCCCC(=O)O` [Linoleic Acid]?
A: Cox2 activity [9]: Negative; IC50 [9]: > 300000 nM; IC50 [12]: > 300000 nM; Cox1 activity [12]: Negative; IC50 [10]: > 30000 nM; 5-Lipo activity [10]: Negative; 5α-reductase inhibitory activity [11]: particularly potent inhibitors

Q: Which Cox2 activity [9] does the source give for `CCCCCCCCCCCC(=O)OCC` [Ethyl laurate] here?
A: Negative

Q: And the IC50 [9, 15]?
A: > 300000 nM

Q: And the IC50 [12, 16]?
A: > 300000 nM

Q: And the Cox1 activity [12]?
A: Negative

Q: And the IC50 [10, 17]?
A: > 30000 nM

Q: What about the 5-Lipo activity [10] of the same compound?
A: Negative

Q: What about the 5α-reductase inhibitory activity [11] of the same compound?
A: markedly less effective

Q: For `CC(C)=CCCC1(C)C(CC=C(C)C)CC2(CC=C(C)C)C(=O)C(CC=C(C)C)=C(O)C1(C(=O)C(C)C)C2=O` (stereo not shown) [hyperforin], which “time to degradation in oil preparations” value [8] is on record?
A: 14 days

Q: For `Cc1cc(O)c2c(=O)c3c(O)cc(O)c4c5c(O)cc(O)c6c(=O)c7c(O)cc(C)c8c1c2c(c34)c(c78)c65` [hypericin], which “hypericin content on storage” value ([8]; 60-140 °C, more than six weeks, powdered extract, tablet and juice) is on record?
A: drop significantly

Q: With `CCCCCCCCCCCC(=O)O` [Lauric Acid] as the compound, how does the Cox2 activity [9] read?
A: Negative

Q: And the IC50 [9, 15]?
A: > 300000 nM

Q: What about the IC50 [12, 16] of the same compound?
A: > 300000 nM

Q: And the Cox1 activity [12]?
A: Negative

Q: And the IC50 [10, 17]?
A: > 30000 nM

Q: And the 5-Lipo activity [10]?
A: Negative

Q: What about the 5α-reductase inhibitory activity [11] of the same compound?
A: particularly potent inhibitors
